Measured values taken from US20050261332A1, “Sulfonamides and uses thereof” (priority 2004, published 2005).

The compounds below were run on mice (assay: fast refeed (fast-refeeding) assay in mice).
Type: in vivo
Method: In vivo assays. Exemplary in vivo assays include the fast-refeeding assay described in Example 1 and as follows.
Food is removed at 6 pm for an overnight (˜16 hour) fast. Beginning at 10 am on the next morning, mice are administered with either vehicle (e.g., saline+acetic acid, pH=5) or the compound of interest. Mice are then returned to their home cages and pre-weighed food (approximately 90 grams) is immediately returned to the food hoppers in each cage. The weight of the food remaining in the food hoppers is measured at 30 minutes, 1 hour, 2 hours, and 4 hours post compound/vehicle administration. Final body weights are then recorded for the mice.

**Q.** With “substance P: substance P; found to modulate GHS-R activity and to alter feeding activity of mice” as the compound, how does the “feeding activity of mice in the fast refeed assay” value read?
**A.** alters feeding activity

These compounds were tested against T1, GHS-R (Homo sapiens, UniProt Q92847) (assay: GHS-R competition binding assay (Ki of GHS-R antagonizing compounds)).
T1 construct: expressed in transfected cells; host or cells: COS-7 cells
Outline: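 COS-7 cells expressing GHS-R (1×10^5 cells/well) competed against 25 pM ^125I-ghrelin for 3 hours at 4° C in 50 mM HEPES pH 7.4 with 1 mM CaCl2, 5 mM MgCl2, 0.1% BSA, bacitracin. Nonspecific binding with […]; bound radioactivity counted after washing and lysis. Ki=IC50/(1+L/Kd).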

T1 sequence (Q92847 whole entry, species assumed): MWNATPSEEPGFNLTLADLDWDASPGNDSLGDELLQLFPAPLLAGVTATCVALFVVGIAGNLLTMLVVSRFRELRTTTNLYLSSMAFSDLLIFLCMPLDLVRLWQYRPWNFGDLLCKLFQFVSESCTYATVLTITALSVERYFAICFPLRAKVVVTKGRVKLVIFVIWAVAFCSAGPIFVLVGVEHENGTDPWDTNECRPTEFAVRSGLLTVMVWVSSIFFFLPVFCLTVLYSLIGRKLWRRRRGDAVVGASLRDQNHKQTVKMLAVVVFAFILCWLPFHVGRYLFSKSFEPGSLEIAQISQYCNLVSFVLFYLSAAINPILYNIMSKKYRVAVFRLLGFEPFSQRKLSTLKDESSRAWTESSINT

**Q.** For `CCN(CC)CCS(=O)(=O)N[C@H](CCc1ccccc1)C(=O)c1ccc(-c2ccccc2CNC(=O)OC(C)(C)C)cc1` [Compound 194, (R)-tert-butyl (4′-(2-(2-(diethylamino)ethylsulfonamido)-4-phenylbutanoyl)biphenyl-2-yl)methylcarbamate], which Ki is on record?
**A.** 100 to 1000 nM

**Q.** `C=C(C)C(=O)OCCNC(=O)NCc1ccccc1-c1ccc(C(=O)[C@@H](CCc2ccccc2)NS(=O)(=O)CCCN(CC)CC)cc1` [Compound 195, (R)-2-(3-((4′-(2-(3-(diethylamino)propylsulfonamido)-4-phenylbutanoyl)biphenyl-2-yl)methyl)ureido)ethyl methacrylate] was tested. Which Ki did it give?
**A.** < 100 nM

**Q.** Which Ki does the source give for `CCN(CC)CCCS(=O)(=O)N[C@H](CCc1ccccc1)C(=O)c1ccc(-c2ccccc2CNC(=O)NC)cc1` [Compound 196, (R)-3-(diethylamino)-N-(1-(2′-((3-methylureido)methyl)biphenyl-4-yl)-1-oxo-4-phenylbutan-2-yl)propane-1-sulfonamide] here?
**A.** < 100 nM

**Q.** `CCNC(=O)NCc1ccccc1-c1ccc(C(=O)[C@@H](CCc2ccccc2)NS(=O)(=O)CCCN(CC)CC)cc1` [Compound 197, (R)-3-(diethylamino)-N-(1-(2′-((3-ethylureido)methyl)biphenyl-4-yl)-1-oxo-4-phenylbutan-2-yl)propane-1-sulfonamide] was tested. Which Ki did it give?
**A.** < 100 nM

**Q.** How did the Ki turn out when `CCN(CC)CCCS(=O)(=O)N[C@H](CCc1ccccc1)C(=O)c1ccc(-c2ccccc2CNC(=O)NCCO)cc1` [Compound 198, (R)-3-(diethylamino)-N-(1-(2′-((3-(2-hydroxyethyl)ureido)methyl)biphenyl-4-yl)-1-oxo-4-phenylbutan-2-yl)propane-1-sulfonamide] was run?
**A.** < 100 nM

**Q.** How did the Ki turn out when `CCN(CC)CCS(=O)(=O)N[C@@H](COCc1ccccc1)C(=O)N1CCC2(CC1)CN(S(C)(=O)=O)c1ccccc12` [Compound 199, (S)-N-(3-(benzyloxy)-1-(1-(methylsulfonyl)spiro[indoline-3,4′-piperidine]-1′-yl)-1-oxopropan-2-yl)-2-(diethylamino)ethanesulfonamide] was run?
**A.** < 100 nM

**Q.** How did the Ki turn out when `CCN(CC)CCCS(=O)(=O)N[C@H](CCc1ccccc1)C(=O)NCc1ccc(-c2ccccc2NC(=O)NC)cc1` [Compound 200, (R)-2-(3-(diethylamino)propylsulfonamido)-N-((2′-(3-methylureido)biphenyl-4-yl)methyl)-4-phenylbutanamide] was run?
**A.** 100 to 1000 nM

**Q.** With `CCN(CC)CCS(=O)(=O)N[C@H](CCc1ccccc1)C(=O)c1ccc(-c2ccccc2CNC(=O)NCCO)cc1` [Compound 201, (R)-2-(diethylamino)-N-(1-(2′-((3-(2-hydroxyethyl)ureido)methyl)biphenyl-4-yl)-1-oxo-4-phenylbutan-2-yl)ethanesulfonamide] as the compound, how does the Ki read?
**A.** < 100 nM

**Q.** For `C=C(C)C(=O)OCCNC(=O)NCc1ccccc1-c1ccc(C(=O)[C@@H](CCc2ccccc2)NS(=O)(=O)CCN(CC)CC)cc1` [Compound 202, (R)-2-(3-((4′-(2-(2-(diethylamino)ethylsulfonamido)-4-phenylbutanoyl)biphenyl-2-yl)methyl)ureido)ethyl methacrylate], which Ki is on record?
**A.** 100 to 1000 nM

**Q.** Which Ki does the source give for `CCN(CC)CCS(=O)(=O)N[C@H](CCc1ccccc1)C(=O)c1ccc(-c2ccccc2CN)cc1` [Compound 203, (R)-N-(1-(2′-(aminomethyl)biphenyl-4-yl)-1-oxo-4-phenylbutan-2-yl)-2-(diethylamino)ethanesulfonamide] here?
**A.** 100 to 1000 nM

**Q.** `CCN(CC)CCS(=O)(=O)N[C@H](CCc1ccccc1)C(=O)c1ccc(-c2ccccc2CNC(C)=O)cc1` [Compound 204, (R)-N-((4′-(2-(2-(diethylamino)ethylsulfonamido)-4-phenylbutanoyl)biphenyl-2-yl)methyl)acetamide] was tested. Which Ki did it give?
**A.** < 100 nM

**Q.** How did the Ki turn out when `CCNC(=O)NCc1ccccc1-c1ccc(C(=O)[C@@H](CCc2ccccc2)NS(=O)(=O)CCN(CC)CC)cc1` [Compound 205, (R)-2-(diethylamino)-N-(1-(2′-((3-ethylureido)methyl)biphenyl-4-yl)-1-oxo-4-phenylbutan-2-yl)ethanesulfonamide] was run?
**A.** < 100 nM

**Q.** With `CCN(CC)CCCS(=O)(=O)N[C@H](CCc1ccccc1)C(=O)NCc1ccc(-c2ccccc2CCNC(=O)NC)cc1` [Compound 206, (R)-2-(3-(diethylamino)propylsulfonamido)-N-((2′-(2-(3-methylureido)ethyl)biphenyl-4-yl)methyl)-4-phenylbutanamide] as the compound, how does the Ki read?
**A.** < 100 nM

**Q.** How did the Ki turn out when `CCN(CC)CCCS(=O)(=O)N[C@H](CCc1ccccc1)C(=O)NCc1ccc(-c2ccccc2CO)cc1` [Compound 207, (R)-2-(3-(diethylamino)propylsulfonamido)-N-((2′-(hydroxymethyl)biphenyl-4-yl)methyl)-4-phenylbutanamide] was run?
**A.** < 100 nM

**Q.** For `CCN(CC)CCCS(=O)(=O)N[C@H](CCc1ccccc1)C(=O)NCc1ccc(-c2ccccc2COC(=O)NC)cc1` [Compound 208, (R)-Methyl-carbamic acid 4′-{[2-(3-diethylamino-propane-1-sulfonylamino)-4-phenyl-butyrylamino]-methyl}-biphenyl-2-ylmethyl ester], which Ki is on record?
**A.** < 100 nM

**Q.** `CCN(CC)CCS(=O)(=O)N[C@H](CCc1ccccc1)C(=O)c1ccc(-c2ccccc2CNC(=O)NC)cc1` [Compound 209, (R)-2-(diethylamino)-N-(1-(2′-((3-methylureido)methyl)biphenyl-4-yl)-1-oxo-4-phenylbutan-2-yl)ethanesulfonamide] was tested. Which Ki did it give?
**A.** < 100 nM

**Q.** How did the Ki turn out when `CCN(CC)CCCS(=O)(=O)N[C@@H](COCc1ccccc1)C(=O)N1CCC2(CC1)CN(S(C)(=O)=O)c1ccccc12` [Compound 210, (S)-N-(3-(benzyloxy)-1-(1-(methylsulfonyl)spiro[indoline-3,4′-piperidine]-1′-yl)-1-oxopropan-2-yl)-3-(diethylamino)propane-1-sulfonamide] was run?
**A.** 100 to 1000 nM

**Q.** With `CCN(CC)CCCS(=O)(=O)N[C@@H](CCc1ccccc1)C(=O)N1CCC2(CC1)CN(S(C)(=O)=O)c1ccccc12` [Compound 211, (S)-3-(diethylamino)-N-(1-(1-(methylsulfonyl)spiro[indoline-3,4′-piperidine]-1′-yl)-1-oxo-4-phenylbutan-2-yl)propane-1-sulfonamide] as the compound, how does the Ki read?
**A.** < 100 nM

**Q.** Which Ki does the source give for `CCN(CC)CCS(=O)(=O)N[C@H](CCc1ccccc1)C(=O)c1ccc(-c2ccccc2CCNC(=O)NC)cc1` [Compound 212, (R)-2-(diethylamino)-N-(1-(2′-(2-(3-methylureido)ethyl)biphenyl-4-yl)-1-oxo-4-phenylbutan-2-yl)ethanesulfonamide] here?
**A.** < 100 nM

**Q.** How did the Ki turn out when `CCN(CC)CCCS(=O)(=O)N[C@H](COCc1ccccc1)C(=O)NCc1ccc(-c2ccccc2CN)cc1` [Compound 213, (R)-N-(2′-Aminomethyl-biphenyl-4-ylmethyl)-3-benzyloxy-2-(3-diethylamino-propane-1-sulfonylamino)-propionamide] was run?
**A.** 100 to 1000 nM

**Q.** How did the Ki turn out when `CCN(CC)CCCS(=O)(=O)N[C@H](COCc1ccccc1)C(=O)NCc1ccc(-c2ccccc2CNC(=O)NC)cc1` [Compound 214, (R)-3-Benzyloxy-2-(3-diethylamino-propane-1-sulfonylamino)-N-{2′[(3-methyl-ureido)-methyl]-biphenyl-4-ylmethyl}-propionamide] was run?
**A.** 100 to 1000 nM

**Q.** `CCN(CC)CCS(=O)(=O)N[C@H](CCc1ccccc1)C(=O)c1ccc(-c2ccccc2COC(=O)NC)cc1` [Compound 215, (R)-(4′-(2-(2-(diethylamino)ethylsulfonamido)-4-phenylbutanoyl)biphenyl-2-yl)methyl methylcarbamate] was tested. Which Ki did it give?
**A.** > 1000 nM

**Q.** With `CCN(CC)CCCS(=O)(=O)N[C@H](COCc1ccccc1)C(=O)NCc1ccc(-c2ccccc2CNC(C)=O)cc1` [Compound 216, (R)-N-[2′-(Acetylamino-methyl)-biphenyl-4-ylmethyl]-3-benzyloxy-2-(3-diethylamino-propane-1-sulfonylamino)-propionamide] as the compound, how does the Ki read?
**A.** > 1000 nM

**Q.** `CCN(CC)CCCS(=O)(=O)N[C@H](COCc1ccccc1)C(=O)NCc1ccc(-c2ccccc2CCNC(=O)NC)cc1` [Compound 217, (R)-3-Benzyloxy-2-(3-diethylamino-propane-1-sulfonylamino)-N-{2′-[2-(3-methyl-ureido)-ethyl]-biphenyl-4-ylmethyl}-propionamide] was tested. Which Ki did it give?
**A.** 100 to 1000 nM

**Q.** `CCN(CC)CCS(=O)(=O)N[C@H](CCc1ccccc1)C(=O)c1ccc(-c2ccccc2C(N)=O)cc1` [Compound 218, (R)-4′-(2-(2-(diethylamino)ethylsulfonamido)-4-phenylbutanoyl)biphenyl-2-carboxamide] was tested. Which Ki did it give?
**A.** > 1000 nM

**Q.** Which Ki does the source give for `CCN(CC)CCCS(=O)(=O)N[C@H](COCc1ccccc1)C(=O)c1ccc(-c2ccccc2COC(=O)NC)cc1` [Compound 219, (R)-Methyl-carbamic acid 4′-[(R)-3-benzyloxy-2-(3-diethylamino-propane-1-sulfonylamino)-propionyl]-biphenyl-2-ylmethyl ester] here?
**A.** 100 to 1000 nM

**Q.** `CS(=O)(=O)N1CC2(CCN(C(=O)[C@@H](CCCc3ccccc3)NS(=O)(=O)CCCN=[N+]=[N-])CC2)c2ccccc21` [Compound 220, (R)-3-azido-N-(1-(1-(methylsulfonyl)spiro[indoline-3,4′-piperidine]-1′-yl)-1-oxo-5-phenylpentan-2-yl)propane-1-sulfonamide] was tested. Which Ki did it give?
**A.** 100 to 1000 nM

**Q.** How did the Ki turn out when “(R)-N-(3-(benzyloxy)-1-(1-(methylsulfonyl)spiro[indoline-3,4′-piperidine]-1′-yl)-1-oxopropan-2-yl)-3-isosulfonylazolidine [Compound 151]” was run?
**A.** 100 to 1000 nM
